Reference: paper PMC4581874 (PLoS ONE, 2015)

Key:
VEGFR-1 = molecular target: T1, VEGFR-1 (Homo sapiens, UniProt P17948); test: In vitro kinase assay, VEGFR-1; assay type: biochemical
T1 construct: purchased Millipore UK Ltd., Dundee, UK (now Eurofins Scientific); KinaseProfiler / IC50 Profiler service
Method: (§1) All kinase assays were carried out using KinaseProfiler^TM and IC50 Profiler^TM (Millipore UK Ltd., Dundee, UK. Now Eurofins Scientific, Dundee, UK). All IC50 data were presented as the mean values. The Curves obtained to determine IC50 values were shown in Supporting Information (S1 Fig).

Abl (h) = molecular target: T2, Abl (h) (Homo sapiens, UniProt P00519); test: Kinase profile, Abl; assay type: biochemical; conditions: mean ± S.D.
T2 construct: purchased Millipore (now Eurofins) KinaseProfiler / IC50 Profiler
Method: as §1

FGFR3 = molecular target: T3, FGFR3 (Homo sapiens, UniProt P22607); test: In vitro kinase assay, FGFR3; assay type: biochemical
T3 construct: purchased Millipore UK Ltd., Dundee, UK (now Eurofins Scientific); KinaseProfiler / IC50 Profiler service
Method: as §1

CDK1/cyclin B (h) = molecular target: T4, CDK1/cyclin B (h) (Homo sapiens, UniProt P06493); test: Kinase profile, CDK1/cyclin B; assay type: biochemical; conditions: mean ± S.D.
T4 construct: purchased Millipore (now Eurofins) KinaseProfiler / IC50 Profiler
Method: as §1

PKA (h) = molecular target: T5, PKA (h) (Homo sapiens, UniProt P17612); test: Kinase profile, PKA; assay type: biochemical; conditions: mean ± S.D.
T5 construct: purchased Millipore (now Eurofins) KinaseProfiler / IC50 Profiler
Method: as §1

PKCγ (h) = molecular target: T6, PKCγ (h) (Homo sapiens, UniProt P05129); test: Kinase profile, PKCγ; assay type: biochemical; conditions: mean ± S.D.
T6 construct: purchased Millipore (now Eurofins) KinaseProfiler / IC50 Profiler
Method: as §1

IR (h) = molecular target: T7, IR (h) (Homo sapiens, UniProt P06213); test: Kinase profile, IR; assay type: biochemical; conditions: mean ± S.D.
T7 construct: purchased Millipore (now Eurofins) KinaseProfiler / IC50 Profiler
Method: as §1

CDK5/p35 (h) = molecular target: T8, CDK5/p35 (h) (Homo sapiens, UniProt Q00535); test: Kinase profile, CDK5/p35; assay type: biochemical; conditions: mean ± S.D.
T8 construct: purchased Millipore (now Eurofins) KinaseProfiler / IC50 Profiler
Method: as §1

HUVECs = test: VEGF-induced tube formation assay; assay type: cell-based, human; conditions: VEGF 50 ng/mL, compound 1 μg/mL
Method: For analyzing of the antagonistic response to VEGF, tube formation, scratch wound migration, and cell proliferation assays were performed after the exposure of HUVECs to 50 ng/mL VEGF-A (R&D Systems, Minneapolis, MN), which induced a significant angiogenic response. For the cell proliferation assays, cells were incubated overnight in endothelial basal media (EBM; Lonza, Walkersville, MD, USA) containing 0.5% FBS or supplemented with VEGF-A and/or VEGF inhibitors. The cells were washed with PBS and counted in 4 random microscope fields. The tube formation assay was performed by seeding cells on Matrigel-coated plates (BD Bioscience, Bedford, MA, USA) and incubating in EBM containing 0.5% FBS or supplemented with VEGF-A and/or VEGF inhibitors. After overnight incubation, tubule networks were quantified by measuring the tubule length in 4 random microscope fields. For the analysis of scratch wound migration, confluent cell monolayers grown on 6-well plates were scratched using a micropipette tip. […] Cell migration was observed by optical microscopy and quantified by measuring the number of cells that had migrated from the wound edges.
In (A) and (B), the number of cells was expressed as the fold change with respect to the number of cells seeded at day 0. […]

phosphorylated EGFR = test: Western blot of EGFR phosphorylation in HCC827 cells; assay type: cell-based; conditions: 3 h
Method: Fig 3 MKP101 inhibits proliferation of epidermal growth factor receptor (EGFR)-tyrosine kinase inhibitor (TKI)-sensitive non-small cell lung cancer (NSCLC) cells. (A) Inhibition of HCC827 cell proliferation. Cells were incubated for 72 h with a range of concentrations of MKP101, and cell viability was measured using the WST-1 assay. […] (B) Inhibition of EGFR phosphorylation in HCC827 cells. Western blot analysis using antibodies to phosphorylated and total EGFR from a representative experiment is shown. Cells were incubated for 3 h at the indicated concentration. (C) Graph showing the relative intensities of the total and phosphorylated EGFR as determined by band densitometry. IC50, half-maximal inhibitory concentration.

PKCθ (h) = molecular target: T9, PKCθ (h) (Homo sapiens, UniProt Q04759); test: Kinase profile, PKCθ; assay type: biochemical; conditions: mean ± S.D.
T9 construct: purchased Millipore (now Eurofins) KinaseProfiler / IC50 Profiler
Method: as §1

PKCα (h) = molecular target: T10, PKCα (h) (Homo sapiens, UniProt P17252); test: Kinase profile, PKCα; assay type: biochemical; conditions: mean ± S.D.
T10 construct: purchased Millipore (now Eurofins) KinaseProfiler / IC50 Profiler
Method: as §1

T3 sequence (P22607 23-806): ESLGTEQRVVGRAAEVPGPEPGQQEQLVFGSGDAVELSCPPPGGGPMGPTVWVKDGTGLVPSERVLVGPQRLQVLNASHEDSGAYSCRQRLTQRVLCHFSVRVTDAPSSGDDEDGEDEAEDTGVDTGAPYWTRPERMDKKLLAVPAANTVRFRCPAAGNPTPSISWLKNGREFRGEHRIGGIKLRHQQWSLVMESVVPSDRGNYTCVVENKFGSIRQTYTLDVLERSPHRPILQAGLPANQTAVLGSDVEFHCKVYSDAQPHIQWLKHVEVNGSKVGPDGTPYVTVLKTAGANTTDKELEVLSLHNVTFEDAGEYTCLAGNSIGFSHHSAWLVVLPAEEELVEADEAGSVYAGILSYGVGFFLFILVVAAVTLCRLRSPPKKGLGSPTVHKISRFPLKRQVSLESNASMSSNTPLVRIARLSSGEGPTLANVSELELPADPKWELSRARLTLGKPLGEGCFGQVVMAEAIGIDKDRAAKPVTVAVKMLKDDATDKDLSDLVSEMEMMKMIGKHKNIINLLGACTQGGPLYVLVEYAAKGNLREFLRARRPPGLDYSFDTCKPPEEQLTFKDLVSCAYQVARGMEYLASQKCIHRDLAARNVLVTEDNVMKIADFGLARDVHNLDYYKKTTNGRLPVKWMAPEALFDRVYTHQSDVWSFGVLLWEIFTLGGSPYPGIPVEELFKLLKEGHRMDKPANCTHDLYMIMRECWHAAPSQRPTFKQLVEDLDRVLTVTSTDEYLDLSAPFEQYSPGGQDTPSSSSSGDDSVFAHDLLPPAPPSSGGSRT
T1 sequence (P17948 27-1338): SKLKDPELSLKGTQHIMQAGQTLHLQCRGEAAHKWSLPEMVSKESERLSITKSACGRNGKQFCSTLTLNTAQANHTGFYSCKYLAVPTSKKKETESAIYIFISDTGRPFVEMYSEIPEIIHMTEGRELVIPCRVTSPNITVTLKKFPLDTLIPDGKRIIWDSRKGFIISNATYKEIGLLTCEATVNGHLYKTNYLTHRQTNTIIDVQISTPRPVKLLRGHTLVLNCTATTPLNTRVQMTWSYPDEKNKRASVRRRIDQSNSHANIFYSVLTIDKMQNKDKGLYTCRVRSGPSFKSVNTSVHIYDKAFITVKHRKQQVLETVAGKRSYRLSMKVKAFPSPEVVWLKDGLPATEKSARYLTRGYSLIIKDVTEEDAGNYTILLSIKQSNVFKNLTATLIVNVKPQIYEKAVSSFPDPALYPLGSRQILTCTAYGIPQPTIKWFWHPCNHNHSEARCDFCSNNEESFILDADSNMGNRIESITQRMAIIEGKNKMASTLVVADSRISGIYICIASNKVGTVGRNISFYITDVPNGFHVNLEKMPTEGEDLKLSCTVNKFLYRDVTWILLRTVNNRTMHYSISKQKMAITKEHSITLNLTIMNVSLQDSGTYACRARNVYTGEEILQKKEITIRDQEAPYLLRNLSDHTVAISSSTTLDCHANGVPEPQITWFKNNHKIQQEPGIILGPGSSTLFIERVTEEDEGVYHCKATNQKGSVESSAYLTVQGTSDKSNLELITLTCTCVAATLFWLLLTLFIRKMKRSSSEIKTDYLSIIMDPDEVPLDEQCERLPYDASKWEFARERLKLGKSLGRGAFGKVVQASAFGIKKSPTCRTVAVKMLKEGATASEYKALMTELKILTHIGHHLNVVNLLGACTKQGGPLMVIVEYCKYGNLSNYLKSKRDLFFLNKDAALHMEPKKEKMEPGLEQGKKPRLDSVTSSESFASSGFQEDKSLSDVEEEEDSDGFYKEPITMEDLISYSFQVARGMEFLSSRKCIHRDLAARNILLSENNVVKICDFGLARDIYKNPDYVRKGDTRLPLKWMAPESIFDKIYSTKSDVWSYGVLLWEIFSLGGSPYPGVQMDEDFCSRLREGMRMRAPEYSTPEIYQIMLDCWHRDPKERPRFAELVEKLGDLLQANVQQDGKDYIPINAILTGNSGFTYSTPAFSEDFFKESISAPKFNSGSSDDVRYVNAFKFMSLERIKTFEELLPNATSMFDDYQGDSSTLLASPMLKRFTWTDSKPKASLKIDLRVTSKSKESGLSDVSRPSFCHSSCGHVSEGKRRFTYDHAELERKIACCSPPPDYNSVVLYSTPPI
T8 sequence (Q00535 whole entry): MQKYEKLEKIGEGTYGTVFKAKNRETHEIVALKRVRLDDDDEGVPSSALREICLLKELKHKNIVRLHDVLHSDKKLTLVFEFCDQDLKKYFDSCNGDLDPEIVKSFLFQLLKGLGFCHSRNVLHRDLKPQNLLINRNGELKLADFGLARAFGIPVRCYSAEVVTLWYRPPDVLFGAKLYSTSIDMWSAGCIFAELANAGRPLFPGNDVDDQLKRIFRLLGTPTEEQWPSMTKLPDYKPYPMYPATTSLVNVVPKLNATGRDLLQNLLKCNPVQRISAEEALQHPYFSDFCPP
T8 sequence (Q15078 whole entry partner): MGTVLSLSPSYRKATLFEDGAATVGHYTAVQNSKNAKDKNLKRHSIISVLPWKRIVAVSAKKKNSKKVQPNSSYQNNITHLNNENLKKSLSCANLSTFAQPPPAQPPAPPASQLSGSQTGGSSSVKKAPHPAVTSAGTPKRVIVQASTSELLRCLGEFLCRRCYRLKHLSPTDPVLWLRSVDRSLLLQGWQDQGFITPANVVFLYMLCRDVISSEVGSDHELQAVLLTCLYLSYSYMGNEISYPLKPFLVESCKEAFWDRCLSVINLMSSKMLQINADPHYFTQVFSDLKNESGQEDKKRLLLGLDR
T9 sequence (Q04759 whole entry): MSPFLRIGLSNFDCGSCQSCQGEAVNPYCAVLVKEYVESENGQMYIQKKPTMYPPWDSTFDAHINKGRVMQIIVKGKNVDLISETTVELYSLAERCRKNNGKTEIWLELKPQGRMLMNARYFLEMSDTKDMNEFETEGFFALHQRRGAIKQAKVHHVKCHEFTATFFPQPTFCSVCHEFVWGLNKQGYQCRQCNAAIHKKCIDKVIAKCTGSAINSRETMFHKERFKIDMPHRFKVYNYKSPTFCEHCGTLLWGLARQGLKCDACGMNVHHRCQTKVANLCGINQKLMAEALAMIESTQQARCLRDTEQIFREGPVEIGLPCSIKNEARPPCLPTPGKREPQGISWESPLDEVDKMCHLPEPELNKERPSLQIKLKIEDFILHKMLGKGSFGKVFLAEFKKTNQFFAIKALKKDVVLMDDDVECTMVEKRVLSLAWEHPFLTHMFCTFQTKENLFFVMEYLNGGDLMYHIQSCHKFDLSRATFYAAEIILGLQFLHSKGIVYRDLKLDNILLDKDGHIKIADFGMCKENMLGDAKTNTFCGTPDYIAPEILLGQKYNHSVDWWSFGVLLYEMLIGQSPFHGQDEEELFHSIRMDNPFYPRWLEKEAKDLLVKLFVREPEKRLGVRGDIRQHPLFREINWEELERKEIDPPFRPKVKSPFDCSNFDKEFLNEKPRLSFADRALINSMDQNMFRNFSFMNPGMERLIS
T4 sequence (P06493 whole entry): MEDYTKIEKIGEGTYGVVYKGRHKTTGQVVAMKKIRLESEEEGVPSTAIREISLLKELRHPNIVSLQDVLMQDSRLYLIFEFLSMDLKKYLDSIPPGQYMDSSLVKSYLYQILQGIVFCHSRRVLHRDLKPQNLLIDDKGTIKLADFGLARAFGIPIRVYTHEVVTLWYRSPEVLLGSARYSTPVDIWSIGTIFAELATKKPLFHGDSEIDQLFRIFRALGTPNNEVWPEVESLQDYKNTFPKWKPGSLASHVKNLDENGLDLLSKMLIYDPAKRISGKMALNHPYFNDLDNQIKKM
T4 sequence (P14635 whole entry partner): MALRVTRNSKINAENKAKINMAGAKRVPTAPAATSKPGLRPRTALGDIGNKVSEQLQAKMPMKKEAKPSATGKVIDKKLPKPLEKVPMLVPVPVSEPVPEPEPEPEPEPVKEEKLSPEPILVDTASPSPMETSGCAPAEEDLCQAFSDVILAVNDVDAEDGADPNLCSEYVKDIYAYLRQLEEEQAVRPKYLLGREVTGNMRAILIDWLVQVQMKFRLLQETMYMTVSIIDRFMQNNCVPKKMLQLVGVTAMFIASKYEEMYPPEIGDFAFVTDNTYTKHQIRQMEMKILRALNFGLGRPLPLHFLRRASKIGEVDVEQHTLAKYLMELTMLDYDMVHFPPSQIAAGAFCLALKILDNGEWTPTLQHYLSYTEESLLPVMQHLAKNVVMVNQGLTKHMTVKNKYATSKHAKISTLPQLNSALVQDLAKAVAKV

inhibition at 1 µM (VEGFR-1; 1 μM, mean ± S.D., read-out: % inhibition at 1 μM, VEGFR-1 (h)): 99%
IC50 (VEGFR-1; in vitro kinase assay): 3 nM
inhibition at 1 µM (Abl (h)): 100 ± 2%
inhibition at 1 µM (FGFR3; 1 μM, mean ± S.D., read-out: % inhibition at 1 μM, FGFR3 (h)): 96%
IC50 (FGFR3; in vitro kinase assay): 43 nM
inhibition at 1 µM (CDK1/cyclin B (h)): 18 ± 8%
inhibition at 1 µM (PKA (h)): 7 ± 6%
inhibition at 1 µM (PKCγ (h)): 12 ± 2%
inhibition at 1 µM (IR (h)): 14 ± 3%
inhibition at 1 µM (CDK5/p35 (h)): 38 ± 3%
inhibition at 1 µM (PKCθ (h)): 16 ± 2%
inhibition at 1 µM (PKCα (h)): 10 ± 1%
Structure (SMILES): Cc1ccc(Nc2nccc(N(C)c3ccc4[nH]ccc4c3)n2)cc1S(N)(=O)=O [MKP101]
Effect on VEGF-induced increase in tube formation (HUVECs): significantly inhibited
Inhibition of EGFR phosphorylation (phosphorylated EGFR): reduced the levels of phosphorylated EGFR
